The assay deals with Human Cav3.1 (Homo sapiens (Human), UniProt O43497). The assay can be described thus: Cav3.1 automated patch clamp assay (SyncroPatch 384PE), HEK-293 natClytin/TASK1+Cav3.1 cell line. Format: cell-based. The protocol: Inhibition of the T-type voltage gated calcium channel (Cav3.1) was evaluated using a HEK-293 natClytin/TASK1+Cav3.1 cell line. Currents were recorded using the SyncroPatch 384PE automated, patch clamp system. Pulse generation and data collection were performed with PatchController384 V1.3.0 and DataController384 V1.2.1 (Nanion Technologies). Off-line analysis was performed using Excel and Graphpad Prism (V 8.4.2) with complete data files uploaded to Dotmatics. The access resistance and apparent membrane capacitance were estimated using built-in protocols. Current was recorded in whole cell configuration from a population of cells. The cells were lifted, triturated, and resuspended at 800,000 cells/ml. The cells were allowed to recover in the cell hotel prior to experimentation. Currents were recorded at room temperature. The external solution contained the following (in mM): NaCl 80, NMDG 60, KCl 4, MgCl2 1, CaCl2 6, glucose 5 and HEPES 10 (pH=7.4, Osmolarity ˜300 mOsm). The extracellular solution was used as the wash, reference and compound delivery solution. The internal solution contained the following (in mM): CsF 110, CsCl 10, NaCl 10, EGTA 10, HEPES 10 (pH=7.2, Osmolarity ˜295 mOsm). The compound plate was created at 2× concentrated in the extracellular solution. The compound was diluted to 1:2 when added to the recording well. The amount of […] in the extracellular solution was held constant at the level used for the highest tested concentration. For the voltage clamp experiments on Cav3.1, data were sampled at 10 KHz. After establishment of the seal and the passage in the whole cell configuration, the cells were held at −120 mV. Cav3.1 current was evoked using a 100 ms step to −20 mV (to measure resting state block), followed by a 1600 ms step to −65 mV and a second 100 ms step to −20 mV (to measure voltage dependent block). The voltage protocol was applied every 15 seconds in the absence and in the presence of the compounds under investigation. […] Current amplitude (pA) was measured in the peak 1 and 2. The average of last 3 sweeps of each liquid period (vehicle, compound under investigation, full block) was calculated. Nickel-sensitive current was used to calculate the % of inhibition in the presence of the compound under investigation.
Human Cav3.1, sequence (O43497 whole entry): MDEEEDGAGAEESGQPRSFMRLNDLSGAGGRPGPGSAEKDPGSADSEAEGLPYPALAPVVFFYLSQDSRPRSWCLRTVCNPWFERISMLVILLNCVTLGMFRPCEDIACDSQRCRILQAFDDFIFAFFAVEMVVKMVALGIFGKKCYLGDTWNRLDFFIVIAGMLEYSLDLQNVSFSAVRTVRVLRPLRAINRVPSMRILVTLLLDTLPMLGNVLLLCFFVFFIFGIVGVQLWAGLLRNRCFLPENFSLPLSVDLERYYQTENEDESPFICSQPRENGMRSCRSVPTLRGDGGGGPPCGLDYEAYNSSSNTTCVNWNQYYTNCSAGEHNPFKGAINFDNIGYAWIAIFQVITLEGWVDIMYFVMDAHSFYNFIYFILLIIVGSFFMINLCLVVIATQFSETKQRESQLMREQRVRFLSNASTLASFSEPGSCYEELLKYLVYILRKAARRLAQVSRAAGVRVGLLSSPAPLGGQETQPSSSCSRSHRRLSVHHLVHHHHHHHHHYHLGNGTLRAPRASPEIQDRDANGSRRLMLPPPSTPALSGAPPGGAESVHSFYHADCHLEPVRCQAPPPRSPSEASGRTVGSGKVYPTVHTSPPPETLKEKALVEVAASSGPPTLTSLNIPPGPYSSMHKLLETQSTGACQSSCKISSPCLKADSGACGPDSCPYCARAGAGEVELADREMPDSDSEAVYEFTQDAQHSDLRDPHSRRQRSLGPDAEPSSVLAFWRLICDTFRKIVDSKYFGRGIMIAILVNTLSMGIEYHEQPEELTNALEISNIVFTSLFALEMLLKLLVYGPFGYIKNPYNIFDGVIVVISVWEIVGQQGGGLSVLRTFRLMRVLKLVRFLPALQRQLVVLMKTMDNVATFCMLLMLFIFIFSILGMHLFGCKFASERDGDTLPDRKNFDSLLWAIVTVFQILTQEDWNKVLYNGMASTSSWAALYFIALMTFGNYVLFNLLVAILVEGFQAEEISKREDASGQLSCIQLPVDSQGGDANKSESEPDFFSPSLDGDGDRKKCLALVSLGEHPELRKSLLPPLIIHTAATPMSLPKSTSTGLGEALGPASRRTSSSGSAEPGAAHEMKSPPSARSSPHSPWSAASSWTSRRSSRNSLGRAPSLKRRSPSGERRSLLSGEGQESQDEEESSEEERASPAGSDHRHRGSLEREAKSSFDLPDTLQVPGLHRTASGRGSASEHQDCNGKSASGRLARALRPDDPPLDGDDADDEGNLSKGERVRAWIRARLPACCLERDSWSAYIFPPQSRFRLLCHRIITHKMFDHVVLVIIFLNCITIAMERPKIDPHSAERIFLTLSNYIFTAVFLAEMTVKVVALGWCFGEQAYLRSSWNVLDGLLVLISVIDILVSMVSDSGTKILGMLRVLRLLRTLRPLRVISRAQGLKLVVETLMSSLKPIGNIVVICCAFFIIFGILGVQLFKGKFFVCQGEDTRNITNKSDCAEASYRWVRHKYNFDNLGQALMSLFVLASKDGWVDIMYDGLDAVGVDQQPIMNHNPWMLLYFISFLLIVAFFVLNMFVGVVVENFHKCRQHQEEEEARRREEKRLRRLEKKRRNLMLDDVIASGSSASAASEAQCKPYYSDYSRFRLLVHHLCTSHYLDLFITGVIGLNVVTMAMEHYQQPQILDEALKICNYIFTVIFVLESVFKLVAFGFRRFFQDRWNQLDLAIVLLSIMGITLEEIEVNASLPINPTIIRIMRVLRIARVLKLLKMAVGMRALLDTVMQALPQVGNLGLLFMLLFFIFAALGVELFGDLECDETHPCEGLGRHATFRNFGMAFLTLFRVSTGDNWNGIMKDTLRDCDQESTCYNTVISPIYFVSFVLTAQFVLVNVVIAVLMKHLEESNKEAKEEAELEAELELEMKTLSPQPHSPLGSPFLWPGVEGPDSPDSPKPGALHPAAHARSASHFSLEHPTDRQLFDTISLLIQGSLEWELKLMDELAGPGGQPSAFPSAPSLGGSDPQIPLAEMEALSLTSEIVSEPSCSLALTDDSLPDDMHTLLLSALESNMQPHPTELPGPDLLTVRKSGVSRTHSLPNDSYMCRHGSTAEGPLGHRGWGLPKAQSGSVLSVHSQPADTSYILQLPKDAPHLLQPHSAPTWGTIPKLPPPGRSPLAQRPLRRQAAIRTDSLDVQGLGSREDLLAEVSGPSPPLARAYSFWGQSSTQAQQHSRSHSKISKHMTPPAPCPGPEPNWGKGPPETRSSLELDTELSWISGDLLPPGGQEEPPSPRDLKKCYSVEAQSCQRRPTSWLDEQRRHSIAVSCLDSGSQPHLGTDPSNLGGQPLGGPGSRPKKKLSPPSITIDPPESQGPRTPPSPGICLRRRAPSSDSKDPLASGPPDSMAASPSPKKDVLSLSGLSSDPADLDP
(In patch-clamp work, channel activity is measured electrically.)

Setting [1] is: Table 1, HEK-293 natClytin/TASK1+Cav3.1 cells.
[2] abbreviates: Table 2, HEK-293 natClytin/TASK1+Cav3.1 cells.

These results are taken from US20250215011A1, “T-TYPE CALCIUM CHANNEL MODULATORS COMPRISING A DIAZASPIROHEPTANE CORE AND METHODS OF USE THEREOF” (Praxis Precision Medicines, Inc., priority 2022, published 2025).

Take `Cc1cc(F)cc(NC(=O)CN2CC3(C2)CN(CC(=O)NC(C)(C)C)C3)c1` [Example 4]: the IC50 – broadly, the concentration needed to halve the response being measured – under setting [1] was 1000 to 10000 nM.
Under setting [2], `CC(C)(C)NC(=O)CN1CC2(C1)CN(Cc1nc3c(Cl)cc(Cl)cc3[nH]1)C2` [Example 39] showed a half-maximal inhibitory concentration (IC50) of less than 1000 nM.
The molecule `CC(C)(C)NC(=O)CN1CC2(C1)CN(CC(=O)NC13CC4CC(CC(C4)C1)C3)C2` [Example 12] registered an IC50 under setting [2] of 1000 to 10000 nM.
Regarding `CC(C)(C)CCN1CC2(C1)CN(CC(=O)Nc1cc(F)cc(Cl)c1)C2` [Example 21], the IC50 under setting [2] is less than 1000 nM.
As to `CC(C)(C)NC(=O)CN1CC2(CN(CC(=O)Nc3cc(F)cc(C(F)F)c3)C2)C1` [Example 3], under setting [1], the half-inhibitory concentration (IC50) lay in the range of 1000 to 10000 nM.
Take `Cc1cc(NC(=O)CN2CC3(C2)CN(CC(=O)NC(C)(C)C)C3)nn1-c1ccccc1` [Example 7]: the IC50 under setting [1] is no less than 10000 nM.
Molecule `CC(C)(C)NC(=O)CN1CC2(CN(CC(=O)Nc3cc(F)cc(Cl)c3)C2)C1` [Example 11] yielded an IC50 under setting [2] of less than 1000 nM.
Under setting [2], `Cc1nc(CN2CC3(CN(CC(=O)Nc4cc(F)cc(Cl)c4)C3)C2)co1` [Example 22] came in with an IC50 of 1000 to 10000 nM.
On the same count and under the same terms, then `O=C(CN1CC2(C1)CN(Cc1cccc(C(F)F)c1)C2)Nc1cc(F)cc(Cl)c1` [Example 27], with less than 1000 nM.
For the molecule `CC(C)(C)NC(=O)CN1CC2(CN(CC(=O)Nc3cc(Cl)cc(Cl)c3)C2)C1` [Example 1, N-(tert-butyl)-2-(6-(2-((3,5-dichlorophenyl)amino)-2-oxoethyl)-2,6-diazaspiro[3.3]heptan-2-yl)acetamide], the IC50 under setting [1] was less than 1000 nM.
`Cc1cccc2[nH]c(CN3CC4(CN(CC(=O)NC(C)(C)C)C4)C3)nc12` [Example 37] registered an IC50 under setting [2] of 1000 to 10000 nM.
The same measure, in the same setting: then `O=C(CN1CC2(C1)CN(Cc1nc(-c3ccccc3)co1)C2)Nc1cc(F)cc(Cl)c1` [Example 28], with 1000 to 10000 nM.
On the same count and under the same terms, as for `CC(C)(NC(=O)CN1CC2(CN(CC(=O)Nc3cc(F)cc(Cl)c3)C2)C1)C(F)(F)F` [Example 17], the figure is 1000 to 10000 nM.
`COc1cc(F)cc(NC(=O)CN2CC3(C2)CN(CC(=O)NC(C)(C)C)C3)c1` [Example 2] had a half-inhibitory concentration (IC50) under setting [1] of 1000 to 10000 nM.
With `CC(C)(C)CCCN1CC2(C1)CN(Cc1nc3c(Cl)cc(F)cc3[nH]1)C2` [Example 35], under setting [2], the IC50 is less than 1000 nM.
With `CC(C)(C)NC(=O)CN1CC2(CN(CC(=O)Nc3ccc(F)c(Cl)c3)C2)C1` [Example 5], the half-maximal inhibitory concentration (IC50) under setting [1] is 1000 to 10000 nM.
As to `CC(C)(C)c1ncc(CN2CC3(CN(CC(=O)Nc4cc(F)cc(Cl)c4)C3)C2)[nH]1` [Example 29], under setting [2], the IC50 was 1000 to 10000 nM.
Same read-out and setting: then `CC(C)(C)c1nc(CN2CC3(CN(CC(=O)Nc4cc(F)cc(Cl)c4)C3)C2)co1` [Example 13], with less than 1000 nM.
Molecule `CC(C)(C)NC(=O)CN1CC2(CN(CC(=O)Nc3cccc(Cl)c3)C2)C1` [Example 6] gave an IC50 under setting [1] of 1000 to 10000 nM.
The molecule `CCC(C)(C)NC(=O)CN1CC2(CN(CC(=O)Nc3cc(F)cc(Cl)c3)C2)C1` [Example 10, N-(3-chloro-5-fluoro-phenyl)-2-[2-[2-(1,1-dimethylpropylamino)-2-oxo-ethyl]-2,6-diazaspiro[3.3]heptan-6-yl]acetamide] yielded an IC50 under setting [2] of less than 1000 nM.
On the same count and under the same terms, then `O=C(CN1CC2(C1)CN(Cc1cnc(-c3ccccc3)[nH]1)C2)Nc1cc(F)cc(Cl)c1` [Example 23], with less than 1000 nM.
On the same count and under the same terms, then `O=C(CN1CC2(C1)CN(CC(=O)NC1CCCC1)C2)Nc1cc(F)cc(Cl)c1` [Example 16], with 1000 to 10000 nM.
Same read-out and setting: as for `Fc1cc(Cl)c2nc(CN3CC4(C3)CN(CC3CCC(F)(F)CC3)C4)[nH]c2c1` [Example 36], the figure is less than 1000 nM; as for `O=C(CN1CC2(CN(CCC3CCC(F)(F)CC3)C2)C1)Nc1cc(F)cc(Cl)c1` [Example 26], less than 1000 nM; as for `CC(C)(C)NC(=O)CN1CC2(CN(CC(=O)Nc3cc(F)cc(OC(F)F)c3)C2)C1` [Example 41], 1000 to 10000 nM.
The molecule `Fc1cc(Cl)c2nc(CN3CC4(CN(CCC5CCCC5)C4)C3)[nH]c2c1` [Example 34] had an IC50 under setting [2] of less than 1000 nM.
The same measure, in the same setting: then `COc1cccc(CN2CC3(CN(CC(=O)Nc4cc(F)cc(Cl)c4)C3)C2)c1` [Example 24], with 1000 to 10000 nM.
On the same count and under the same terms, as for `O=C(CN1CC2(C1)CN(Cc1coc(-c3ccccc3)n1)C2)Nc1cc(F)cc(Cl)c1` [Example 15], the figure is less than 1000 nM.
For the molecule `CC(C)(C)c1coc(CN2CC3(CN(CC(=O)Nc4cc(F)cc(Cl)c4)C3)C2)n1` [Example 19], the half-inhibitory concentration (IC50) under setting [2] lay in the range of 1000 to 10000 nM.
The same measure, in the same setting: then `CC(C)(C)NC(=O)CN1CC2(C1)CN(C(=O)Nc1cc(F)cc(Cl)c1)C2` [Example 43], with less than 1000 nM; and `CC(C)(C)NC(=O)CN1CC2(C1)CN(Cc1nc3cc(F)cc(Cl)c3[nH]1)C2` [Example 9, N-(tert-butyl)-2-(6-((7-chloro-5-fluoro-1H-benzo[d]imidazol-2-yl)methyl)-2,6-diazaspiro[3.3]heptan-2-yl)acetamide], with less than 1000 nM.
On the same count and under the same terms, then `CC(C)(NC(=O)CN1CC2(C1)CN(Cc1nc3c(Cl)cc(F)cc3[nH]1)C2)C(F)(F)F` [Example 31], with less than 1000 nM; and `Cc1cc(F)cc2[nH]c(CN3CC4(CN(CC(=O)NC(C)(C)C)C4)C3)nc12` [Example 38], with 1000 to 10000 nM; and `O=C(CN1CC2(C1)CN(Cc1cccc(Cl)c1)C2)Nc1cc(F)cc(Cl)c1` [Example 25], with less than 1000 nM.
On to `O=C(CN1CC2(CN(CCC3CCCC3)C2)C1)Nc1cc(F)cc(Cl)c1` [Example 20], for which, under setting [2], the IC50 is less than 1000 nM.
On to `Cc1coc(CN2CC3(CN(CC(=O)Nc4cc(F)cc(Cl)c4)C3)C2)n1` [Example 30], for which the IC50 under setting [2] was 1000 to 10000 nM.
With `CC(C)(C)CCN1CC2(C1)CN(Cc1nc3c(Cl)cc(F)cc3[nH]1)C2` [Example 33], under setting [2], the half-inhibitory concentration (IC50) was less than 1000 nM.
`O=C(CN1CC2(C1)CN(Cc1nc3ccccc3[nH]1)C2)Nc1cc(F)cc(Cl)c1` [Example 18] gave a half-maximal inhibitory concentration (IC50) under setting [2] of less than 1000 nM.
On the same count and under the same terms, then `CCC(C)(C)NC(=O)CN1CC2(C1)CN(Cc1nc3c(Cl)cc(F)cc3[nH]1)C2` [Example 32], with less than 1000 nM.
As for `CC(C)(C)NC(=O)CN1CC2(C1)CN(Cc1nc3c(F)cc(OC(F)F)cc3[nH]1)C2` [Example 40], the IC50 under setting [2] lay within 1000 to 10000 nM.
In the case of `CC(C)(C)NC(=O)CN1CC2(CN(CC(=O)Nc3cccc(Cl)c3F)C2)C1` [Example 8], the half-inhibitory concentration (IC50) under setting [1] was no less than 10000 nM.
For the molecule `CC1(NC(=O)CN2CC3(CN(CC(=O)Nc4cc(F)cc(Cl)c4)C3)C2)CCC1` [Example 14], the IC50 under setting [2] is less than 1000 nM.
